The test system of assay [1] is primary B-CLL cells. In words: Western blot of cPARP, Mcl-1, Bcl-xl in primary B-CLL cells. In kind it is cell-based, human. The note with it: 10 μg/ml with rhsCD40L. On the procedure: Whole cell lysates were prepared in RIPA lysis buffer (1% Nonidet P-40, 0.5% sodium deoxycholate, 0.1% Sodium dodecylsulfate in 1× phosphate buffered saline, pH 7.2). 10-20 μg of protein per sample were resolved on a 10% Tris-Glycine gel and transferred to nitrocellulose membranes, and membranes were probed using mAbs specific to human cPARP, Mcl-1, or Bcl-xl. The membranes were stripped and re-probed for β-actin and developed using ECL.

In assay [2] the test system is B-CLL cells from patients. In words: Western blot of apoptosis markers in B-CLL cells not stimulated with CD40L. Type of assay: cell-based, human. The note with it: 10 μg/ml; 1, 4 and 24 hours; no CD40L. On the procedure:
Cells were collected at 1, 4, and 24 hours. Western blot analysis with antibodies to cleaved PARP (apoptotic protein) and XIAP (anti-apoptotic protein) was conducted on cell lysates.

The test system of assay [3] is B-CLL cells from patients. In words: Flow cytometry of cleaved PARP and TUNEL in B-CLL cells. In kind it is cell-based, human. The note with it: 10 μg/ml with 1 μg/ml sCD40L, 24 hours. On the procedure: In this experiment, 0.4×10^6B-CLL cells from patients were stimulated with 1 μg/ml sCD40L (Alexis Corp., Bingham, Nottinghamshire, UK). CHIR12.12 (10 μg/ml) or control IgG was then added. […] After fixation and permeabilization, the cells were stained for cleaved PARP and TUNEL methods.
Background: In flow cytometry, cells or beads pass a laser one at a time.

Assay [4] deals with IM-9 tumor cells (a human multiple myeloma cell line). In words: Staged orthotopic IM-9 xenograft survival model. In kind it is in vivo, SCID mice. The note with it: 0.1, 1 or 10 mg/kg i.p. once a week from 7 days after implantation. On the procedure: SCID mice were inoculated subcutaneously with IM-9 tumor cells (a human multiple myeloma cell line expressing both CD40 and CD20) in 50% […]™ at 5×10^6 cells per mouse. In unstaged models, treatment was initiated one day after tumor implantation. […] Alternatively, tumor-bearing mice were injected with bortezomib at 0.5 mg/kg or 1 mg/kg intravenously once a week. Data were analyzed using the log-rank test.
In staged models, treatment was initiated 7 days after tumor cell implantation. […] Alternatively, tumor-bearing mice were injected with bortezomib at 0.5 mg/kg intravenously. Data were analyzed using the log-rank test.

Assay [5] concerns normal B cells. In words: CD40L-induced production of VEGF in normal B cells. In kind it is cell-based, human. The source says: In another experiment, CD40L-induced production of VEGF in normal B cells and CLL cells obtained from patients with CLL is examined in a manner similar to that described above.
Assay [6] has as its system B-CLL cells from patients. In words: Western blot of CD40L-mediated signaling (p-IKK α/β, p-ERK, p-Akt, p-p38) in B-CLL cells. Type of assay: cell-based, human. The note with it: 10 μg/ml. On the procedure:
In these experiments, 1.0×10^6 B-CLL cells from patients were stimulated with 1 μg/ml sCD40L (Alexis Corporation, Bingham, Nottinghamshire, UK). […] Cells were collected at 0 and 20 minutes. Phosphorylated IKKα (Ser180) and IKK β (Ser 181) (p-IKK α/β; NFkB pathway), phosphorylated ERK (p-ERK), phosphorylated Akt (p-Akt), and phosphorylated p38 MAPK (p-p38) were detected in cell lysates by Western blot.

Assay [7] has as its target cell-surface CD40 (Homo sapiens, UniProt P25942). In words: Flow cytometric CD40-ligand binding blockade and displacement. The note with it: flow cytometric assays / FACS. An excerpt:
(§1) 2, 2000, and PCT International Application No. PCT/US01/30857, also titled “Human Anti-CD40 Antibodies,” filed Oct. 2, 2001, both of which are herein incorporated by reference in their entirety.
(§2) 4, 2003, Nov. 26, 2003, and Apr. 27, 2004, and assigned U.S. Patent Application Nos. 60/517,337, 60/525,579, and 60/565,710, respectively, and International Patent Application No. PCT/US2004/037152, also entitled “Antagonist, Anti-CD40 Monoclonal Antibodies and Methods for Their Use,” filed Nov. 4, 2004; the contents of each of which are herein incorporated by reference in their entirety.

In assay [8] the test system is B-CLL cells. Nature of the assay: Western blot of p-Akt, p-p38 MAPK, p-IKK α/β, p-ERK in B-CLL cells. Type of assay: cell-based, human. On the procedure:
To detect p38 MAPK, cells were cultured for 3 hr using the previously described conditions, with rhsCD40L being added in the last 20 min of incubation. Cells were processed as described above for data shown in FIG. 25. mAbs specific to human p-Akt and p-p38 MAPK were used to probe the resultant membranes, which were re-probed for AKT and p38 total protein, respectively.
Resultant membranes were probed using mAbs specific to human p-IKK α/β and p-ERK.
On the technique in general: Immunoblotting shows a protein as a band on a membrane.

The subject of assay [9] is primary cancer cells from NHL patients. In words: ADCC against primary cancer cells. Type of assay: cell-based, human. The note with it: in vitro.
From the text: as §2

Assay [10] concerns B-CLL cells. In words: cPARP flow cytometry of CLL patient PBMCs. The note with it: 24 hours, 10 μg/ml. Type of assay: cell-based, human. On the procedure:
[formula] cPARP analysis by flow cytometry was performed after 24 hours in culture. Cells were treated with FACSLysis buffer (BD Biosciences) and frozen. After fixation in 1% formaldehyde for 45 min, cells were washed and incubated with PE-conjugated mouse anti-human CD19 for 30 min at room temperature (RT). Cells were then permeabilized using 70% ethanol on ice for 30 min and stained for 30 min at RT with rabbit anti-human cPARP antibody or isotype control rabbit IgG along with PerCP-Cy5.5-labeled mouse anti-human CD5. This was followed by incubation with goat anti-rabbit IgG-AlexaFluor 647 for 30 min at RT before fixing with 1% formaldehyde and analyzing by flow cytometry. Percent blockade was calculated as follows: […]

Assay [11] has as its system B cells from normal human subjects. In words: In vitro CD40 ligand-mediated proliferation of normal B cells. In kind it is cell-based.
From the text: as §1, §2

Assay [12] concerns B-CLL cells. Nature of the assay: CellTiter-Glo viability of CLL patient PBMCs. In kind it is cell-based, human. The note with it: 72 hours, 10 μg/ml. On the procedure: Cell viability was determined after 72 hours using the CellTiter-Glo® Luminescent Cell Viability Kit (Promega, Madison, Wis.), which measures cellular ATP, and expressed as Relative Luminescence Units (RLU). Percent blockade was calculated as follows: […]
For orientation: ATP-based viability assays read luminescence as a measure of living cells.

Assay [13] concerns CLL cells. In words: CD40L-induced cytokine secretion by CLL cells (Meso Scale Discovery). Type of assay: cell-based, human. To be noted: CLL #1; 10 μg/ml, 24 hours; preliminary, n=1. On the procedure: Cells (1×10^5 cells per well) were cultured in a 96-well plate in the presence or absence of CD40L (CD40 transfected, formaldehyde fixed CHO cells, 2×10^5 per well). […] Production of hIL-6, hIL-8, hIL-10, hTNF-α, hGM-CSF, hIL-1b, hIL-12p70, MCP-1, and MIP-1β was measured by Meso Scale Discovery® multi-array system (Meso Scale Discovery, Gaithersburg, Md.).

Where [14] appears, read: 3 hr culture, rhsCD40L in the last 20 min.

Entries after “also recorded” stand apart in the source; their conditions may differ.

Experimental findings from US8337851B2, “Methods of monitoring the efficacy of anti-CD40 antibodies in treating a subject for a CD40-expressing cancer” (Novartis AG, priority 2005, dated 2012) are described below.

Chain of cell-surface CD40 (P25942 21-277): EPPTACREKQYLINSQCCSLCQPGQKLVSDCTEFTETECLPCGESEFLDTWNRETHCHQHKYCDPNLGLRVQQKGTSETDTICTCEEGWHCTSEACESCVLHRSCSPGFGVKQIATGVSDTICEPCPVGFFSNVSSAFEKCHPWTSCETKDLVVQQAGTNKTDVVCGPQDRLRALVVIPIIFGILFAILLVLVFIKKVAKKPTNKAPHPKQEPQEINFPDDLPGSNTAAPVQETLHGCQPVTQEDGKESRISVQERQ

Consider “CHIR-12.12: fully human anti-CD40 monoclonal antibody of the IgG1 isotype from hybridoma cell line 153.8E2.D10.D6.12.12 (ATCC PTA-5543)”, for which, in assay [1], the “cPARP levels and Mcl-1 and Bcl-xl expression (Western blot)” value was “blocked the CD40L-mediated decrease of cPARP levels and CD40L-mediated increase of Mcl-1 and Bcl-xl expression”. The “apoptosis without CD40L stimulation (cleaved PARP, XIAP)” value in assay [2] is “did not trigger additional apoptosis of B-CLL cells”. The “percentage of cells positive for cleaved PARP or TUNEL” value in assay [3] was “the percentage of positive cells for cleaved PARP or TUNEL returned to the levels seen without sCD40L stimulation”. The “survival of tumor-bearing mice” value in assay [4] was “prolonged survival of tumor-bearing mice”. Besides, the “CD40L-induced production of VEGF” value in assay [5] was “inhibit CD40L-induced production of VEGF”. Moreover, the “phosphorylation of IKK α/β, ERK and Akt” value in [6] (20 minutes, 1 μg/ml sCD40L, vs control IgG) is “significant inhibition of phosphorylation of IKK α/β, ERK, and Akt”. In addition, the “p38 MAPK activation” value in [6] (samples with constitutively activated p38 MAPK) was “did not significantly inhibit p38 MAPK activation”. In assay [7], the “displacement of pre-bound CD40-ligand” value is recorded as “displace the pre-bound CD40-ligand; also recorded: can compete off CD40-ligand pre-bound to cell surface CD40” and the “prevention of CD40-ligand binding to cell-surface CD40” value is “prevent the binding of CD40-ligand to cell-surface CD40; also recorded: can prevent CD40-ligand binding”. Further, in [8] (setting [14]), the “CD40L-induced phosphorylation of IKK α/β and ERK ½” value was “inhibited the CD40L-induced phosphorylation of IKK α/β and ERK ½”; the “rhsCD40L-enhanced phosphorylation of p38 MAPK” value is listed as “blocked this effect”. For the same substance, in assay [8] (in a number of samples), the “CD40L activation of the AKT pathway (p-Akt)” value is “blocked this effect”. For the same substance, the “killing of primary cancer cells by ADCC” value in assay [9] is “kill primary cancer cells from NHL patients by ADCC”. Further, in assay [10], the “blockade of CD40L-promoted survival” value is listed as “in each case, these effects were blocked”. Also, the “effect on proliferation of normal B cells” value in [11] is “act as antagonist anti-CD40 antibodies; also recorded: inhibit in vitro CD40 ligand-mediated proliferation of normal B cells”. Further, the “blockade of CD40L-promoted survival” value in [12] is on record as “in each case, these effects were blocked”. Also, in assay [13], the “inhibition of CD40-ligand-induced MCP-1 secretion” value worked out at 34.8 % inhibition, the “inhibition of CD40-ligand-induced hGM-CSF secretion” value is listed as 86.5 % inhibition, the “inhibition of CD40-ligand-induced hIL-8 secretion” value is on record as 91.0 % inhibition and the “inhibition of CD40-ligand-induced hIL-10 secretion” value was 99.6 % inhibition. Further, the “inhibition of CD40-ligand-induced hTNF-α secretion” value in assay [13] was 89.6 % inhibition.
